From patent publication US20150025012A1, “METHODS AND COMPOSITIONS FOR IDENTIFICATION, ASSESSMENT AND TREATMENT OF CANCERS ASSOCIATED WITH HEDGEHOG SIGNALING” (Infinity Pharmaceuticals, Inc., priority 2010, published 2015)

Assays:
[1] = system: patient derived tumor xenograft models; assay: Tumor growth in patient derived tumor xenograft models; type: in vivo, Mice
From the text: Mice received daily treatment of IPI-926, M-F, for 6-10 weeks (n=10-15 per group).

[2] = system: murine Gli1; assay: Gli1 mRNA in sorted stromal cell fractions of tumors; type: in vivo; conditions: Lin+/Lin- and CD31+/CD31- fractions; IPI-926 40 mg/kg 24 hours prior to sacrifice
From the text: Since tumor-associated stroma is a complex mixture of different cell types, further experiments have been carried out to determine the identity of the IPI-926-responsive cells. Tumors were obtained from animals treated or untreated with IPI-926 and the cells from within the tumors were subsequently fractionated in the following manner. First, the human cancer cells were removed from the mixture using magnetic beads that were coated with an antibody against the cell surface marker, Ep-CAM. Those cells that remained were the murine stromal cells associated with that tumor. Next, these stromal cells were subsequently separated based on their expression of cell surface markers known to be associated with specific cell lineages. In one sample set, cells were separated based on their expression of a panel of markers specific for cells of the hematopoietic lineage. These cells can be referred to as either Lin− or Lin+. […]
Cells used for sorting experiments were obtained by the following procedure. […] After this incubation, the cells in the flow through and the column were then analyzed for their expression of specific mRNAs by RT-PCR.
RNA for analysis was isolated from cell pellets or tumor tissue using the Ambion RNA 4-PCR isolation kit according to the manufacturer's guidance. […] Relative quantification of the expression data was obtained using the ΔΔCT method as described by Applied Biosystems.

[3] = system: Gli1; assay: Nuclear Gli1 immunohistochemical staining of BCC lesion biopsies pre- and post-treatment; type: in vivo, human
Description: For immunohistochemical (IHC) detection, tissue samples can be fixed in 10% neutral buffered formalin at room temperature before processing for paraffin embedding. The length of fixation depends on the size of the tissue, for example, overnight but not more than 22-24 hours for large tissues; and no more than 2 hours for small core or needle biopsies. The fixed tissues are sectioned to 7 microns […] and mounted on Superfrost Microscope™ slides (Fisher Scientific).
Prior to incubation with anti-Gli1 antibody, antigen retrieval can be performed to break the protein cross-links formed by formalin fixation and thereby reveal hidden antigens. Antigen retrieval buffers with different buffer compositions and pH are commercially available, for example, CC1 (Tris/EDTA, pH 8.0; Ventana, Cat. No. 950-124); CC2 (citrate, pH 6.0; Ventana, Cat. No. 950-123); citrate buffer (pH 6.0; Invitrogen, Cat. No. 00-5000); Target Retrieval Solution (citrate, pH 6.1; Dako, Cat. No. S170084); Target Retrieval Solution (Tris/EDTA, pH 9.0; Dako, Cat. No. S236884); Diva Decloaker (citrate, pH 6.2; Biocare, Cat. No. DV2004 mM); and EDTA Decloaker (EDTA based, pH 8.5; Biocare, Cat. No. CB917 L).
Anti-Gli1 antibodies that can be used to detect nuclear Gli1 protein in tumor samples are commercially available. Exemplary anti-Gli1 antibodies include, e.g., rabbit polyclonal and monoclonal antibody from Cell Signaling Technology (Cat. Nos. 2553 and 3538, respectively); rabbit polyclonal antibody (H-300) from Santa Cruz Biotechnology (Cat. No. se-20687, described in Chung et al., J. Clin. Oncol. 2011; 29(10):1326-34); rabbit polyclonal antibody from Abcam (Cat. No. ab92611); rabbit polyclonal antibody from Abnova (Cat. No. PAB10214); rabbit polyclonal antibody from GenWay Biotech (Cat. No. 18-732-292074); rabbit polyclonal antibody from LifeSpan BioSciences (Cat. No. LS-C66529-50); rabbit polyclonal antibody from Novus Biologicals (Cat. No. NBP1-03294); mouse polyclonal antibody from ProSci (Cat. No. 49-519); goat polyclonal antibody from R&D Systems (Cat. No. AF3455); and rabbit polyclonal antibody from United States Biological (Cat. No. G2035-51A).
Detection of tumor nuclear Gli1 staining in basal cell carcinomas (BCC) was performed using the protocols described in Example 9. FIGS. 23C and 23D show nuclear staining of Gli1 in biopsy samples of a BCC lesion pre- and 22-day post-treatment of IPI-926.
The definition of H-score is known in the art, e.g., as described in Detre, S. et al. (1995) J. Clin. Pathol. […] The intensity in the malignant cell nuclei can be scored as 0, 1, 2, or 3. […] The total number of cells in each field and the number of cells stained at each intensity are counted. The average percentage positive can be calculated and analyzed as described in Detre, S. et al. (1995) supra.

[4] = daily treatment M-F for 6-10 weeks, multiple models
[5] = post treatment versus pre treatment BCC sample

SMILES: CC1=C2C[C@H]3[C@@H](CC[C@@H]4C[C@H](NS(C)(=O)=O)CC[C@@]43C)[C@@H]2CC[C@@]2(C1)O[C@@H]1C[C@H](C)CN[C@H]1[C@H]2C [IPI-926]
- changes in morphology ([1]; FIGS. 22A-22D micrographs): loss of tumor cells and calcification of the chondroid matrix
- mean tumor growth inhibition [1, 4]: 43%
- range of tumor growth inhibition [1, 4]: 33-52%
- murine Gli1 inhibition in stromal cell fractions [2]: greatest degree of murine Gli1 inhibition was present in both the Lin-population and CD31-population
- overall reduction of Gli1 protein staining [3, 5]: 57%
- reduction in nuclear Gli1 stain [3, 5]: 60%
- nuclei stained positive for Gli1 ([3]; post-treatment (27% before treatment)): 16%
- H-score of Gli1 staining ([3]; post-treatment (100 before treatment)): 57
